What all share (details): post-emergence spray at 3-4 leaf stage, 80 g/ha, 30th day after treatment, greenhouse
The test system of series [1] is common ragweed. Nature of the series: Upland post-emergence treatment test, common ragweed. It counts as in vivo, common ragweed (Ambrosia artemisilfolia). An excerpt:
(§1) 97 Parts by weight of talc (trade name: Zeaklite, supplied by Zeaklite Industry) as a carrier, 1.5 parts by weight of alkylarylsulfonic acid salt (trade name: Neoplex, supplied by Kao-Atlas K.K.) as a surfactant and 1.5 parts by weight of a nonionic and anionic surfactant (trade names Sorpol 800A, supplied by Toho Chemical Co., Ltd.) were uniformly pulverized and mixed to prepare a carrier for a wettable powder.
(§2) 90 Parts by weight of the above carrier for a wettable powder and 10 parts by weight of one of the compounds of the present invention were uniformly pulverized and mixed to obtain herbicides. Further, in Comparative Herbicide Examples, comparative herbicides were also prepared from the following compounds (A) and (B) in the same manner.
(§3) Herbicidal efficacy and phytotoxicity to crops were determined on the basis of the ratio of remaining plant weight to plant weight in non-treated plot=(remaining plant weight in treated plot/plant weight in non-treated-plot)×100. The ratings were applied to the following biological tests.
(§4) Seeds of weeds velvetleaf, redroot pigweed, common ragweed, green foxtail and large crabgrass and seeds of corn were sown in 1/5,000-are Wagner pots filled with upland soil, and covered with upland soil. The seeds were grown in a greenhouse, and at the stage of 3˜4 leaves of these plants, a predetermined amount of the herbicide prepared in the above (1) was suspended in water, and the suspension was uniformly sprayed onto leaf and stalk portions at a rate of 2,000 liters/hectare. Then, the plants were grown in the greenhouse, and on the 30th day after the treatment, the herbicide was evaluated for herbicidal efficacy and phytotoxicity to the corn on the basis of the ratings shown in (2).

Series [2] has as its system green foxtail. In words: Upland post-emergence treatment test, green foxtail. It counts as in vivo, green foxtail (Setaria viridis).
Description: as §1, §2, §3, §4

Series [3] relates to redroot pigweed. In words: Upland post-emergence treatment test, redroot pigweed. It counts as in vivo, redroot pigweed (Amaranthus retroflexus).
Description: as §1, §2, §3, §4

Series [4] relates to large crabgrass. Nature of the series: Upland post-emergence treatment test, large crabgrass. It counts as in vivo.
Description: as §1, §2, §3, §4

Series [5] relates to corn. Nature of the series: Upland post-emergence treatment test, phytotoxicity to corn. It is filed as in vivo.
Description: as §1, §2, §3, §4

Series [6] has as its system velvetleaf. In words: Upland post-emergence treatment test, velvetleaf. It counts as in vivo, velvetleaf (Abutilon theophrasti).
Description: as §1, §2, §3, §4

The structures appear in SMILES notation.
Further: ranges in brackets are in %.

Regarding `CCCCCCCCS(=O)(=O)Oc1c(C(=O)c2ccc3c(c2C)C(C)(C)CS3(=O)=O)cnn1C` [Compound 12], in series [1], the “Herbicidal Efficacy DD = Common ragweed” value is 5 (0). In series [2], the “Herbicidal Efficacy EE = Green foxtail” value is 5 (0). For the same compound, the “Herbicidal Efficacy CC = Redroot Pigweed” value in series [3] was 5 (0). Further, in series [4], the “Herbicidal Efficacy FF = Large crabgrass” value is 5 (0). Also, the “Phytotoxicity Corn” value in series [5] was “− (100)”. Moreover, the “Herbicidal Efficacy AA = Velvetleaf” value in series [6] was 5 (0).

Consider `Cc1c(C(=O)c2cnn(C)c2OS(=O)(=O)CC(C)C)ccc2c1C(C)(C)CS2(=O)=O` [Compound 8], for which the “Herbicidal Efficacy DD = Common ragweed” value in series [1] is 5 (0). In series [2], the “Herbicidal Efficacy EE = Green foxtail” value was 5 (0). Besides, the “Herbicidal Efficacy CC = Redroot Pigweed” value in series [3] is listed as 5 (0). Moreover, the “Herbicidal Efficacy FF = Large crabgrass” value in series [4] is given as 5 (0). Also, in series [5], the “Phytotoxicity Corn” value is on record as “− (100)”. Also, the “Herbicidal Efficacy AA = Velvetleaf” value in series [6] is on record as 5 (0).

Take `Cc1c(C(=O)c2cnn(C)c2OS(=O)(=O)c2ccc(Cl)cc2Cl)ccc2c1C(C)(C)CS2(=O)=O` [Compound 24]: in series [1], the “Herbicidal Efficacy DD = Common ragweed” value is recorded as 5 (0). Further, the “Herbicidal Efficacy EE = Green foxtail” value in series [2] is on record as 5 (0). In series [3], the “Herbicidal Efficacy CC = Redroot Pigweed” value is 5 (0). Besides, in series [4], the “Herbicidal Efficacy FF = Large crabgrass” value is listed as 5 (0). Further, the “Phytotoxicity Corn” value in series [5] is “− (100)”. Besides, the “Herbicidal Efficacy AA = Velvetleaf” value in series [6] is 5 (0).

Take `Cc1c(C(=O)c2cnn(C)c2OS(=O)(=O)CCCCl)ccc2c1C(C)(C)CS2(=O)=O` [Compound 14]: in series [1], the “Herbicidal Efficacy DD = Common ragweed” value is 5 (0). For the same compound, in series [2], the “Herbicidal Efficacy EE = Green foxtail” value was 5 (0). Also, in series [3], the “Herbicidal Efficacy CC = Redroot Pigweed” value was 5 (0). Further, the “Herbicidal Efficacy FF = Large crabgrass” value in series [4] is on record as 5 (0). Moreover, in series [5], the “Phytotoxicity Corn” value was “− (100)”. For the same compound, the “Herbicidal Efficacy AA = Velvetleaf” value in series [6] is 5 (0).

On to `Cc1ccc(C(=O)Oc2c(C(=O)c3ccc4c(c3C)C(C)(C)CS4(=O)=O)cnn2C)cc1` [Compound 42], for which the “Herbicidal Efficacy DD = Common ragweed” value in series [1] was 5 (0). Moreover, the “Herbicidal Efficacy EE = Green foxtail” value in series [2] is 5 (0). For the same compound, the “Herbicidal Efficacy CC = Redroot Pigweed” value in series [3] is on record as 5 (0). Also, the “Herbicidal Efficacy FF = Large crabgrass” value in series [4] is listed as 5 (0). In series [5], the “Phytotoxicity Corn” value was “− (100)”. In addition, the “Herbicidal Efficacy AA = Velvetleaf” value in series [6] was 5 (0).

In the case of `Cc1c(C(=O)c2cnn(C)c2OS(=O)(=O)CCl)ccc2c1C(C)(C)CS2(=O)=O` [Compound 13], in series [1], the “Herbicidal Efficacy DD = Common ragweed” value is 5 (0). In addition, the “Herbicidal Efficacy EE = Green foxtail” value in series [2] is listed as 5 (0). Besides, the “Herbicidal Efficacy CC = Redroot Pigweed” value in series [3] is reported as 5 (0). Moreover, the “Herbicidal Efficacy FF = Large crabgrass” value in series [4] was 5 (0). Besides, the “Phytotoxicity Corn” value in series [5] was “− (100)”. Besides, the “Herbicidal Efficacy AA = Velvetleaf” value in series [6] is reported as 5 (0).

`CCC(=O)Oc1c(C(=O)c2ccc3c(c2C)C(C)(C)CS3(=O)=O)cnn1C` [Compound 29]: the “Herbicidal Efficacy DD = Common ragweed” value in series [1] is listed as 5 (0). Besides, the “Herbicidal Efficacy EE = Green foxtail” value in series [2] is 5 (0). Besides, the “Herbicidal Efficacy CC = Redroot Pigweed” value in series [3] is given as 5 (0). In addition, the “Herbicidal Efficacy FF = Large crabgrass” value in series [4] was 5 (0). The “Phytotoxicity Corn” value in series [5] is recorded as “− (100)”. The “Herbicidal Efficacy AA = Velvetleaf” value in series [6] is given as 5 (0).

As for `Cc1c(C(=O)c2cnn(C)c2OS(=O)(=O)c2ccc([N+](=O)[O-])cc2)ccc2c1C(C)(C)CS2(=O)=O` [Compound 26], the “Herbicidal Efficacy DD = Common ragweed” value in series [1] is on record as 5 (0). Moreover, the “Herbicidal Efficacy EE = Green foxtail” value in series [2] is given as 5 (0). The “Herbicidal Efficacy CC = Redroot Pigweed” value in series [3] is recorded as 5 (0). Also, the “Herbicidal Efficacy FF = Large crabgrass” value in series [4] is 5 (0). Moreover, the “Phytotoxicity Corn” value in series [5] was “− (100)”. For the same compound, the “Herbicidal Efficacy AA = Velvetleaf” value in series [6] is 5 (0).

With `CC(C)N.Cc1c(C(=O)c2cnn(C)c2O)ccc2c1C(C)(C)CS2(=O)=O` [Compound 51], the “Herbicidal Efficacy DD = Common ragweed” value in series [1] is reported as 5 (0). Moreover, the “Herbicidal Efficacy EE = Green foxtail” value in series [2] is listed as 5 (0). The “Herbicidal Efficacy CC = Redroot Pigweed” value in series [3] is listed as 5 (0). The “Herbicidal Efficacy FF = Large crabgrass” value in series [4] is 5 (0). For the same compound, the “Phytotoxicity Corn” value in series [5] is given as “− (100)”. Moreover, the “Herbicidal Efficacy AA = Velvetleaf” value in series [6] is 5 (0).

As for `COc1ccc(S(=O)(=O)Oc2c(C(=O)c3ccc4c(c3C)C(C)(C)CS4(=O)=O)cnn2C)cc1` [Compound 25], the “Herbicidal Efficacy DD = Common ragweed” value in series [1] is recorded as 5 (0). For the same compound, the “Herbicidal Efficacy EE = Green foxtail” value in series [2] is listed as 5 (0). In addition, the “Herbicidal Efficacy CC = Redroot Pigweed” value in series [3] was 5 (0). Moreover, the “Herbicidal Efficacy FF = Large crabgrass” value in series [4] is listed as 5 (0). The “Phytotoxicity Corn” value in series [5] is given as “− (100)”. In series [6], the “Herbicidal Efficacy AA = Velvetleaf” value is reported as 5 (0).

Regarding `CCc1ccc(S(=O)(=O)Oc2c(C(=O)c3ccc4c(c3C)C(C)(C)CS4(=O)=O)cnn2C)cc1` [Compound 19], in series [1], the “Herbicidal Efficacy DD = Common ragweed” value was 5 (0). The “Herbicidal Efficacy EE = Green foxtail” value in series [2] is reported as 5 (0). Besides, the “Herbicidal Efficacy CC = Redroot Pigweed” value in series [3] is recorded as 5 (0). In addition, the “Herbicidal Efficacy FF = Large crabgrass” value in series [4] is on record as 5 (0). Further, in series [5], the “Phytotoxicity Corn” value is reported as “− (100)”. The “Herbicidal Efficacy AA = Velvetleaf” value in series [6] is reported as 5 (0).

Take `Cc1cc(C)c(S(=O)(=O)Oc2c(C(=O)c3ccc4c(c3C)C(C)(C)CS4(=O)=O)cnn2C)c(C)c1` [Compound 27]: the “Herbicidal Efficacy DD = Common ragweed” value in series [1] is recorded as 5 (0). Also, the “Herbicidal Efficacy EE = Green foxtail” value in series [2] was 5 (0). Further, the “Herbicidal Efficacy CC = Redroot Pigweed” value in series [3] was 5 (0). In addition, the “Herbicidal Efficacy FF = Large crabgrass” value in series [4] is on record as 5 (0). In series [5], the “Phytotoxicity Corn” value is “− (100)”. The “Herbicidal Efficacy AA = Velvetleaf” value in series [6] was 5 (0).

With `Cc1c(C(=O)c2cnn(C)c2OS(=O)(=O)c2ccccc2)ccc2c1C(C)(C)CS2(=O)=O` [Compound 15], the “Herbicidal Efficacy DD = Common ragweed” value in series [1] is given as 5 (0). In series [2], the “Herbicidal Efficacy EE = Green foxtail” value is listed as 5 (0). Moreover, in series [3], the “Herbicidal Efficacy CC = Redroot Pigweed” value was 5 (0). Besides, the “Herbicidal Efficacy FF = Large crabgrass” value in series [4] was 5 (0). Moreover, the “Phytotoxicity Corn” value in series [5] is “− (100)”. For the same compound, in series [6], the “Herbicidal Efficacy AA = Velvetleaf” value is recorded as 5 (0).

Regarding `Cc1c(C(=O)c2cnn(C)c2OS(=O)(=O)C(C)C)ccc2c1C(C)(C)CS2(=O)=O` [Compound 5], the “Herbicidal Efficacy DD = Common ragweed” value in series [1] is on record as 5 (0). The “Herbicidal Efficacy EE = Green foxtail” value in series [2] is 5 (0). Moreover, in series [3], the “Herbicidal Efficacy CC = Redroot Pigweed” value is given as 5 (0). In addition, in series [4], the “Herbicidal Efficacy FF = Large crabgrass” value is 5 (0). Besides, the “Phytotoxicity Corn” value in series [5] is given as “− (100)”. Also, the “Herbicidal Efficacy AA = Velvetleaf” value in series [6] is 5 (0).

As for `Cc1c(C(=O)c2cnn(C)c2OS(=O)(=O)c2ccc(Cl)cc2)ccc2c1C(C)(C)CS2(=O)=O` [Compound 21], the “Herbicidal Efficacy DD = Common ragweed” value in series [1] is reported as 5 (0). Moreover, the “Herbicidal Efficacy EE = Green foxtail” value in series [2] is given as 5 (0). Besides, the “Herbicidal Efficacy CC = Redroot Pigweed” value in series [3] is on record as 5 (0). In addition, in series [4], the “Herbicidal Efficacy FF = Large crabgrass” value is 5 (0). In addition, the “Phytotoxicity Corn” value in series [5] was “− (100)”. Moreover, the “Herbicidal Efficacy AA = Velvetleaf” value in series [6] is on record as 5 (0).

Turning to `CCCCS(=O)(=O)Oc1c(C(=O)c2ccc3c(c2C)C(C)(C)CS3(=O)=O)cnn1C` [Compound 7], in series [1], the “Herbicidal Efficacy DD = Common ragweed” value is on record as 5 (0). Besides, the “Herbicidal Efficacy EE = Green foxtail” value in series [2] is on record as 5 (0). Further, the “Herbicidal Efficacy CC = Redroot Pigweed” value in series [3] is 5 (0). Moreover, in series [4], the “Herbicidal Efficacy FF = Large crabgrass” value was 5 (0). For the same compound, the “Phytotoxicity Corn” value in series [5] was “− (100)”. For the same compound, in series [6], the “Herbicidal Efficacy AA = Velvetleaf” value is recorded as 5 (0).

For `Cc1c(C(=O)c2cnn(C)c2OS(=O)(=O)C2CC2)ccc2c1C(C)(C)CS2(=O)=O` [Compound 6], the “Herbicidal Efficacy DD = Common ragweed” value in series [1] was 5 (0). Further, in series [2], the “Herbicidal Efficacy EE = Green foxtail” value was 5 (0). Moreover, in series [3], the “Herbicidal Efficacy CC = Redroot Pigweed” value is 5 (0). In addition, the “Herbicidal Efficacy FF = Large crabgrass” value in series [4] is 5 (0). In addition, in series [5], the “Phytotoxicity Corn” value is given as “− (100)”. Further, the “Herbicidal Efficacy AA = Velvetleaf” value in series [6] is reported as 5 (0).

The values above are taken from patent publication US20040162221A1, “Pyrazole derivatives and herbicides containing the same” (IDEMITSU KOSAN CO., LTD., priority 1998, published 2004).
